Measurements reported in patent publication US10357480B2, “Biotin for treating peripheral demyelinating neuropathy” (MedDay Pharmaceuticals, priority 2015, dated 2019).

What was measured:
CMT1A = details: six clinical trials, 1- or 2-year AA treatment; cited from earlier work
[1] = tested on: patient suffering from ALS; experiment: Treatment of a patient suffering from ALS with high doses biotin (case report); type: in vivo, human
Description: Treatment with biotin 100 mg three times a day was started the 11 Sep. 2015. […] All these medications were introduced at least 6 months before.

[2] = tested on: patients diagnosed with Neuromyelitis optica; experiment: Treatment of patients with neuromyelitis optica, visual acuity and motor strength; type: in vivo, human; details: for visual acuity right: 0/10 at onset; for visual acuity left: 9/10 at onset
Excerpt: Biotin can be used for treatment of neuromyelitis optica, using the same kind of regimen as disclosed in Examples 1 and 4.
Endpoint would be partial recovery and improvement of vision or of motor strength. Three patients will be treated and assessed every 6 months with measures of visual acuity (VA) and clinical examination including motor strength testing. Results will be considered positive in case of improvement of VA of at least 5 letters associated with any improvement of motor strength.
Results: • Patient 1: this person was diagnosed with Neuromyelitis optica. First episode of right optic neuritis occurred in 2006. This was followed by an attack of tetraplegia in 2009 with positive anti-NMO antibodies. […] The patient could not walk. Treatment with biotin (100 mg three times a day) was started. […] Treatment with biotin (100 mg three times a day) was introduced. At that time the patient was treated with monthly perfusions of cyclophosphamide. Visual acuity was 0/10 right and 9/10 left. After 4 months of treatment with biotin, visual acuity was 1/10 right and 6/10 left. After 18 months of treatment, visual acuity was 2/10 right and 8/10 left. It was concluded that treatment with biotin improved the right visual acuity.

[3] = in vivo; cited from earlier work
[4] = tested on: patients with demyelinating Charcot Marie Tooth (CMT) disease; experiment: Treatment of patients with demyelinating Charcot Marie Tooth disease, 6 minutes walking test; type: in vivo, human
Description: Two patients with demyelinating Charcot Marie Tooth (CMT) disease were treated with biotin 300 mg/day. • A patient with CMT1a was treated with high doses of biotin (100 mg three times a day). No other treatment was introduced. The patient was followed clinically using a 6 minutes walking test. After 9 months of treatment the maximum walking distance was improved by 100 meters. • A person with CMT1E (a rare form of demyelinating CMT with hearing loss) was treated with high doses biotin (100 mg three times a day). No other drug was introduced.

[5] = tested on: IgM anti-MAG demyelinating neuropathy; details: controlled trial (Léger et al, 2013); cited from earlier work
[6] = biotin 100 mg three times a day

## O=C1O[C@H]([C@@H](O)CO)C(O)=C1O [Ascorbic acid]
CMT1A
  clinical benefit: no clinical benefit

## O=C(O)CCCC[C@@H]1SC[C@@H]2NC(=O)N[C@@H]21 [biotin, Biotin]
[1]; after 6 months of treatment, dependent on ventilator 24 hours a day at beginning
  time the patient could switch off the medical ventilator: 4 hours a day
[1]; [6]
  disability: some stabilization of its disability
  weight of the patient: slightly increased
[1]; biotin 100 mg three times a day, after 3 and 6 months, better exercise tolerance during physical therapy
  muscle atrophy in lower extremities: some improvement
[1]; biotin 100 mg three times a day, after 3 and 6 months, concomitant riluzole and other medications
  limbs weakness and swallowing: stabilization
[2]; NMO Patient 1, after 9 months
  strength in the right lower limb: better strength
[2]; NMO Patient 1, after 24 months, could not walk at onset
  walking ability: walk with two aids and the help of the physical therapist
[2]; NMO Patient 1, biotin 100 mg three times a day, 24 months
  tolerability of treatment: very well tolerated
[2]; NMO Patient 1, biotin 100 mg three times a day, after three months, confirmed after 9 months
  right hand movements: some improvement
[2]; NMO Patient 2, after 4 months of biotin 100 mg three times a day, monthly cyclophosphamide
  visual acuity right: 1/10
[2]; NMO Patient 2, after 4 months
  visual acuity left: 6/10
[2]; NMO Patient 2, after 18 months
  visual acuity right: 2/10
  visual acuity left: 8/10
[3]
  plasma half life: about 2 hours
[4]; CMT1E patient, after 9 months, 396 meters at onset
  6 minutes walk test: 490 meters
[4]; CMT1E patient, after 12 months, 396 meters at onset
  6 minutes walk test: 480 meters
[4]; CMT1E patient, after 18 months, 396 meters at onset
  6 minutes walk test: 483 meters
[4]; CMT1E patient, after 24 months, 396 meters at onset
  6 minutes walk test: 580 meters
[4]; patient with CMT1a, biotin 100 mg three times a day, after 9 months
  improvement of maximum walking distance, 6 minutes walking test: 100 meters
[4]; person with CMT1E, biotin 100 mg three times a day, after 3 months, 396 meters at treatment's onset
  6 minutes walk test: 515 meters

## Rituximab: monoclonal antibody
[5]
  patients condition: didn't really improve
